Reference: patent US20250304990A1, “HERBICIDE RESISTANCE” (SYNGENTA CROP PROTECTION AG, priority 2021, published 2025)

Assays:
Experiment in all cases: Dose response test, growth in 96-well plates
Assay type in all cases: cell-based, Chlorella fusca
Cf WT = conditions: Cf WT; 2-fold dilutions from 100 ppm
Experimental: (§1) Dose response tests with B5U were set-up in 96-well, flat bottomed plates. 200 μl medium was used in each well. 2 μl of 6 day old culture was added to each well, then 2 μl of DMSO or dilution of test compound were added to respective wells. 2-fold dilutions starting at 100 ppm were used per well. Plates were incubated at 25° C., 50 μmol/m^2/s, 16 hour photoperiod.
(§2) This was assessed by a visual inspection of growth in the 96-well plate. The inhibitor concentration at which no growth is observed is then defined as the LD.
(§3) Starting dose was 100 ppm and decreasing with 2-fold dilutions with C. fusca wt, the five HST mutants and the 10 compounds to which the wt is sensitive. Plates were incubated at 25° C., 50 μmol/m2/s, 16 hour photoperiod.

Cf-496-15 = Cf-496-15 (T277N); 2-fold dilutions from 100 ppm
Experimental: as §1, §2, §3

Cf-496-19 = Cf-496-19 (F275I); 2-fold dilutions from 100 ppm
Experimental: as §1, §2, §3

Cf-496-28 = Cf-496-28 (V276A); 2-fold dilutions from 100 ppm
Experimental: as §1, §2, §3

Cf-496-8 = Cf-496-8 (M278L_F279I); 2-fold dilutions from 100 ppm
Experimental: as §1, §2, §3

Cf-496-94 = Cf-496-94 (F275L); 2-fold dilutions from 100 ppm
Experimental: as §1, §2, §3

## Cc1nn(C)c(=O)c(-c2c(F)ccc(Cl)c2CCc2ccc(F)cc2)c1OC(=O)C(C)C [B5p, [5-[3-chloro-6-fluoro-2-[2-(4-fluorophenyl)ethyl]phenyl]-1,3-dimethyl-6-oxo-pyridazin-4-yl]2-methylpropanoate]
Cf WT
  dose response to HST inhibiting compounds: 25 ppm
Cf-496-15
  dose response to HST inhibiting compounds: >100 ppm
Cf-496-19
  dose response to HST inhibiting compounds: >100 ppm
Cf-496-28
  dose response to HST inhibiting compounds: >100 ppm
Cf-496-8
  dose response to HST inhibiting compounds: >100 ppm
Cf-496-94
  dose response to HST inhibiting compounds: >100 ppm
